Laboratory results from PMC10673995, “Discovery of a novel cardiac-specific myosin modulator using artificial intelligence-based virtual screening” (Nature Communications, 2023).
Where “and” joins values, the source holds several entries; their conditions need not be identical. Identical values can stand only once.

Test system: isolated Langendorff-perfused rat hearts
Test: Langendorff-perfused rat hearts, haemodynamic parameters
Design: key to LVSP, individual hearts / LVEDP, individual hearts: pressure in mmHg; Max (Figure 5c): unit not given here
Settings: for Max (Figure 5c): one column per heart; for LVSP representative trace, ON: during perfusion with compound
Procedure: Next, we tested for the functional effects of F10 in isolated Langendorff-perfused rat hearts. Hearts were initially stabilized in modified Krebs-Henseleit (KH) solution for about 25–30 min and subsequently perfused with KH solution containing 20 μmol L^−1 F10 for 5 mins to reach a new steady state.
Rat hearts were Langendorff-perfused as described previously. Briefly, Wistar rats (Rattus norvegicus, male, 200–250 g, 7 weeks old) were anesthetized by injection of 0.9 mL sodium pentobarbitone 20% (w/v). […] The aorta was cannulated and secured with sutures (Mersilk 3‐0; Ethicon, Somerville, NJ, USA). Hearts were perfused at a constant perfusion pressure of 70 ± 2 mmHg using a peristaltic pump (Gilson Minipuls 4, Middleton, WI, USA) and a feedback control system (STH Pump Controller; AD Instruments, Oxford, UK). […] A fluid‐filled balloon, attached to a pressure transducer, was inserted into the left ventricle and inflated to give an end‐diastolic pressure between 3 and 8 mmHg. Left ventricular pressure (LVP), perfusion pressure, coronary flow and arterial and venous oxygen tensions were recorded using a PowerLab recorder and LabChart 8.0 software (ADInstruments). Functional parameters were averaged for ∼80 cardiac cycles at 5 min intervals.

[1] = 20 μmol L^−1 F10 or 1 μmol L^−1 Mavacamten
[2] = Time 11 min, during perfusion with 20 μmol L^−1 F10 or 1 μmol L^-1 Mavacamten
[3] = Time 12 min, during perfusion with 20 μmol L^−1 F10 or 1 μmol L^-1 Mavacamten
[4] = Time 13 min, during perfusion with 20 μmol L^−1 F10 or 1 μmol L^-1 Mavacamten
[5] = Time 14 min, during perfusion with 20 μmol L^−1 F10 or 1 μmol L^-1 Mavacamten
[6] = Time 15 min, during perfusion with 20 μmol L^−1 F10 or 1 μmol L^-1 Mavacamten

## CCc1cc2c(=O)n(NC(=S)NC(C)C)cnc2s1 [F10]
20 μmol L^−1 F10
  decrease of LVSP: about 65%
  time to LVSP decrease: 2 to 3 min
20 μmol L^−1 F10, baseline 1.9 ± 0.2
  LVEDP: 22.0 ± 1.1 mmHg
20 μmol L^−1 F10, baseline 15.6 ± 1.7
  Coronary flow: 16.7 ± 2.3 mL/min
20 μmol L^−1 F10, baseline 168.0 ± 8.5
  LVSP (left ventricular systolic pressure): 58.3 ± 2.2 mmHg and ~60 mmHg
20 μmol L^−1 F10, baseline 303 ± 8
  Heart rate: 300 ± 4 bpm
20 μmol L^−1 F10, baseline 3978.8 ± 108.0
  dP dt-1max: 1329.0 ± 153.8 mmHg s-1
20 μmol L^−1 F10, baseline -3352.4 ± 134.4
  dP dt-1min: -1300.0 ± 104.2 mmHg s-1
[1]
  effect on coronary perfusion / coronary flow: without, however, affecting
  effect on heart rate: without, however, affecting
  effect on left ventricular end-diastolic pressure (LVEDP): slightly increased
Time 0 min
  Max (Figure 5c): 4538.86 and 3737.57 and 4104.74 and 3514.73
Time 1 min
  Max (Figure 5c): 4533.2 and 3831.26 and 4064.23 and 3491.94
Time 2 min
  Max (Figure 5c): 4496.16 and 3879.38 and 4046.5 and 3811.01
Time 3 min
  Max (Figure 5c): 4752.62 and 3481.82 and 4079.42 and 3811
Time 4 min
  Max (Figure 5c): 4748.26 and 3745.17 and 3942.68 and 3866.71
Time 5 min
  Max (Figure 5c): 4784.79 and 3724.91 and 3914.83 and 3735.04
Time 6 min
  Max (Figure 5c): 4906.21 and 3922.42 and 4049.03 and 3689.46
Time 7 min
  Max (Figure 5c): 4229.13 and 4155.39 and 4130.07 and 3504.61
Time 8 min
  Max (Figure 5c): 3838.64 and 3904.7 and 4175.65 and 3570.44
Time 9 min
  Max (Figure 5c): 4069.64 and 3864.18 and 4233.89 and 3747.7
Time 10 min
  Max (Figure 5c): 4016.14 and 3757.83 and 4254.14 and 3608.43
[2]
  LVEDP, individual hearts: 15.6 and 9.2 (2×) and 12.7
  LVSP, individual hearts: 111 and 115 and 127 and 112
Time 11 min
  Max (Figure 5c): 2272.52 and 2689.23 and 2643.65 and 2375.23
[3]
  LVEDP, individual hearts: 29.6 and 15 and 19.6 and 15.9
  LVSP, individual hearts: 61 and 72 and 67 and 69
Time 12 min
  Max (Figure 5c): 1178.7 and 1696.59 and 1306.63 and 1372.47
[4]
  LVEDP, individual hearts: 33.1 and 16.4 and 22.8 and 17.5
  LVSP, individual hearts: 53 and 61 and 54 and 64
Time 13 min
  Max (Figure 5c): 944.61 and 1258.52 and 1063.54 and 1212.94
[5]
  LVEDP, individual hearts: 33.5 and 16.7 and 22.2 and 17.6
  LVSP, individual hearts: 53 and 62 and 55 and 63
[6]
  LVEDP, individual hearts: 24.3 and 20.65 and 23.5 and 19.6
  LVSP, individual hearts: 54 and 60 and 59 and 62
Time 15 min
  Max (Figure 5c): 1778.6 and 1228.13 and 1081.26
Time 16 min, after washout
  LVEDP, individual hearts: 10.1 and 9 and 13.9 and 11.2
  LVSP, individual hearts: 56 and 118 and 105 and 99
Time 16 min
  Max (Figure 5c): 3660.62 and 2787.98 and 2279.01 and 1886.51
Time 17 min, after washout
  LVEDP, individual hearts: 4.9 and 3.7 and 8.8 and 5.7
  LVSP, individual hearts: 80 and 162 and 174 and 148
Time 17 min
  Max (Figure 5c): 4729.41 and 3935.08 and 3990.79 and 3096.92
Time 18 min, after washout
  LVEDP, individual hearts: 3.9 and 2 and 7.3 (2×)
  LVSP, individual hearts: 157 and 184 and 161 and 128
Time 18 min
  Max (Figure 5c): 4833.67 and 4428.87 and 3509.67 and 2539.83
Time 19 min, after washout
  LVEDP, individual hearts: 4.5 and 0 and 5.9 and 6.4
  LVSP, individual hearts: 189 and 183 and 170 and 127
Time 19 min
  Max (Figure 5c): 4740.03 and 4469.38 and 3319.75 and 2476.52
Time 20 min, after washout
  LVEDP, individual hearts: 4.8 and 1.5 and 7.4 and 6.4
  LVSP, individual hearts: 198 and 188 and 151 and 124
Time 20 min
  Max (Figure 5c): 4601.11 and 4596 and 3177.95 and 2499.31
Time 21 min, after washout
  LVEDP, individual hearts: 3.4 and 1.5 and 7.5 and 6
  LVSP, individual hearts: 199 and 191 and 151 and 124
Time 21 min
  Max (Figure 5c): 4625.81 and 4497.24 and 3228.59 and 2473.99
Time 22 min, after washout
  LVEDP, individual hearts: 0.7 and 0.5 and 7.5 and 6.6
  LVSP, individual hearts: 200 and 181 and 145 and 127
Time 22 min
  Max (Figure 5c): 4517.25 and 4112.34 and 3099.45 and 2489.18
Time 23 min, after washout
  LVEDP, individual hearts: 3.5 and 0.4 and 5.8 and 6.4
  LVSP, individual hearts: 202 and 174 and 144 and 129
Time 23 min
  Max (Figure 5c): 4435.96 and 3988.26 and 3074.13 and 2524.63
Time 24 min, after washout
  LVEDP, individual hearts: 3.4 and 1.5 and 6.4 and 5.5
  LVSP, individual hearts: 196 and 173 and 146 and 133
Time 24 min
  Max (Figure 5c): 4141.16 and 3968 and 3132.37 and 2582.87
Time 25 min, after washout
  LVEDP, individual hearts: 2.4 and 0.2 and 5.3 and 4.7
  LVSP, individual hearts: 195 and 173 and 151 and 139
Time 25 min
  Max (Figure 5c): 4228.11 and 3945.21 and 3241.25 and 2668.97
After washout, t 0 s
  LVSP representative trace, OFF: 26.9301 mmHg
After washout, t 10 s
  LVSP representative trace, OFF: 27.9144 mmHg
After washout, t 20 s
  LVSP representative trace, OFF: 30.1929 mmHg
After washout, t 30 s
  LVSP representative trace, OFF: 33.9204 mmHg
After washout, t 40 s
  LVSP representative trace, OFF: 39.0616 mmHg
After washout, t 50 s
  LVSP representative trace, OFF: 45.8972 mmHg
After washout, t 60 s
  LVSP representative trace, OFF: 54.0831 mmHg
After washout, t 70 s
  LVSP representative trace, OFF: 63.6019 mmHg
After washout, t 80 s
  LVSP representative trace, OFF: 75.1964 mmHg
After washout, t 90 s
  LVSP representative trace, OFF: 88.9731 mmHg
After washout, t 100 s
  LVSP representative trace, OFF: 99.8102 mmHg
After washout, t 110 s
  LVSP representative trace, OFF: 110.826 mmHg
After washout, t 120 s
  LVSP representative trace, OFF: 122.733 mmHg
After washout, t 130 s
  LVSP representative trace, OFF: 132.379 mmHg
After washout, t 140 s
  LVSP representative trace, OFF: 138.465 mmHg
After washout, t 150 s
  LVSP representative trace, OFF: 148.942 mmHg
After washout, t 160 s
  LVSP representative trace, OFF: 154.992 mmHg
After washout, t 170 s
  LVSP representative trace, OFF: 158.488 mmHg
After washout, t 180 s
  LVSP representative trace, OFF: 163.133 mmHg
After washout, t 190 s
  LVSP representative trace, OFF: 167.458 mmHg
After washout, t 200 s
  LVSP representative trace, OFF: 171.598 mmHg
After washout, t 210 s
  LVSP representative trace, OFF: 175.866 mmHg
After washout, t 220 s
  LVSP representative trace, OFF: 181.264 mmHg
After washout, t 230 s
  LVSP representative trace, OFF: 184.759 mmHg
After washout, t 240 s
  LVSP representative trace, OFF: 185.799 mmHg
T 0 s
  LVSP representative trace, ON: 184.006 mmHg
T 10 s
  LVSP representative trace, ON: 181.455 mmHg
T 20 s
  LVSP representative trace, ON: 172.654 mmHg
T 30 s
  LVSP representative trace, ON: 155.565 mmHg
T 40 s
  LVSP representative trace, ON: 123.466 mmHg
T 50 s
  LVSP representative trace, ON: 94.0285 mmHg
T 60 s
  LVSP representative trace, ON: 73.0453 mmHg
T 70 s
  LVSP representative trace, ON: 48.8284 mmHg
T 80 s
  LVSP representative trace, ON: 40.271 mmHg
T 90 s
  LVSP representative trace, ON: 34.4969 mmHg
T 100 s
  LVSP representative trace, ON: 31.9133 mmHg
T 110 s
  LVSP representative trace, ON: 30.398 mmHg
T 120 s
  LVSP representative trace, ON: 28.7612 mmHg
T 130 s
  LVSP representative trace, ON: 28.2624 mmHg
T 140 s
  LVSP representative trace, ON: 27.1705 mmHg
Individual hearts
  Coronary flow: 18.7 mL/min and 18.0 mL/min and 20.0 mL/min and 10.0 mL/min
  Heart rate: 295.0 bpm and 311.0 bpm and 292.0 bpm and 302.0 bpm
  LVEDP: 30.3 mmHg and 17.9 mmHg and 22.8 mmHg and 18.2 mmHg
  LVSP: 53.3 mmHg and 61.0 mmHg and 56.0 mmHg and 63.0 mmHg
  dP dt-1max: 1778.6 mmHg s-1 and 1228.1 mmHg s-1 (2×) and 1081.3 mmHg s-1
  dP dt-1min: -1606.8 mmHg s-1 and -1233.2 mmHg s-1 and -1142.0 mmHg s-1 and -1218.0 mmHg s-1
Perfusion with KH solution in the absence of F10
  reversibility of the effect on washout: completely reversible
